Experimental data as given in patent US6048715A, “Two-phase partition affinity separation system and affinity separated cell-containing composition” (priority 1996, dated 2000).

Biological target: T1, CBDN1 (Cellulomonas fimi, UniProt P14090)
T1 construct: Cex leader peptide (secretion signal of the vector) (N); made in house; purified from the culture supernatant
T1 sequence (P14090 33-184): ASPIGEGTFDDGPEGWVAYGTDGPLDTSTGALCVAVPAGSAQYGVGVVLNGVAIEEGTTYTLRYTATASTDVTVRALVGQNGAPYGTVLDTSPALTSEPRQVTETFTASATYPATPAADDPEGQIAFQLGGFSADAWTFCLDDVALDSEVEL
Experiment: Isothermal titration microcalorimetry of oligosaccharide binding
Settings: N1 binding, 35° C., Table 8
Source text: The PBP can be obtained following isolation and purification of the enzyme by clipping off the PBP from the remainder of the enzyme. For use in the phase separation system, the PBP is screened for binding to soluble phase-forming oligosaccharides. While any of a number of methods can be used for screening, including NMR alone, NMA/calorimetry, affinity electrophoresis alone, affinity electrophoresis/competition assay, and binding isotherms. Binding equilibrium studies using isothermal titration microcalorimetry (ITC) are preferred. The advantage of isothermal titration microcalorimetry […] in binding equilibrium studies derives from the fact that binding isotherms are defined by the experiment in terms of heats of reaction; as such, they allow a direct estimation of enthalpy (and entropy (changes in addition to the association constant. Thus, a single microcalorimetric titration provides a complete characterization of the binding energetics along with the binding isotherm. (Haynes et al., J. Colloid Interface Sci., (1994) 169:313; Colloids & Surfaces, (1994) 2:517.
Microcalorimetry was used to measure binding thermodynamics for CBDN1 to a wide range of water-soluble oligosaccharides with the aim of identifying a set of suitable ligands for the affinity partition system. […] For both oligosaccharides,CPDN1 binding is as tight or even tighter than nearly all PEG-based affinity ligands (e.g., Cibacron blue-PEG, Procion red-PEG, dinitrophenyl-PEG, diacetic acid-PEG) currently in use in affinity partition systems.

**Q.** For `OC[C@H]1O[C@@H](O[C@H]2[C@H](O)[C@@H](O)[C@H](O[C@H]3[C@H](O)[C@@H](O)[C@H](O[C@H]4[C@H](O)[C@@H](O)[C@H](O[C@H]5[C@H](O)[C@@H](O)[C@H](O[C@H]6[C@H](O)[C@@H](O)C(O)O[C@@H]6CO)O[C@@H]5CO)O[C@@H]4CO)O[C@@H]3CO)O[C@@H]2CO)[C@H](O)[C@@H](O)[C@@H]1O` (stereo partly drawn) [Cellohexaose], which “-TΔS^o” value is on record?
**A.** 0.79 kcal/mol

**Q.** And the “ΔH^o” value?
**A.** -6.9 ± 0.2 kcal/mol

**Q.** What does the source list for `OC[C@H]1O[C@@H](O[C@H]2[C@H](O)[C@@H](O)[C@H](O[C@H]3[C@H](O)[C@@H](O)[C@H](O[C@H]4[C@H](O)[C@@H](O)[C@H](O[C@H]5[C@H](O)[C@@H](O)C(O)O[C@@H]5CO)O[C@@H]4CO)O[C@@H]3CO)O[C@@H]2CO)[C@H](O)[C@@H](O)[C@@H]1O` (stereo partly drawn) [Cellopentaose]?
**A.** -TΔS^o: 0.86 kcal/mol; ΔH^o: -6.8 ± 0.2 kcal/mol

**Q.** What does the source list for `OC[C@H]1O[C@@H](O[C@H]2[C@H](O)[C@@H](O)[C@H](O[C@H]3[C@H](O)[C@@H](O)[C@H](O[C@H]4[C@H](O)[C@@H](O)C(O)O[C@@H]4CO)O[C@@H]3CO)O[C@@H]2CO)[C@H](O)[C@@H](O)[C@@H]1O` (stereo partly drawn) [Cellotetraose]?
**A.** -TΔS^o: 1.4 ± 0.1 kcal/mol; ΔH^o: -6.4 ± 0.2 kcal/mol
